Measurements reported in patent US6908947B2, “Sulfonamide-substituted fused 7-membered ring compounds, their use as a medicament, and pharmaceutical preparations comprising them” (Aventis Pharma Deutschland GmbH, priority 1997, dated 2005).

melting point [°C]	SMILES
172 to 173	O=S(=O)(N[C@@H]1c2ccccc2CCC[C@H]1O)c1ccc(Cl)cc1 (relative stereo) [Example 19, trans-5-[N-(4-Chlorophenyl)-sulfonylamino]-6,7,8,9-tetrahydro-5H-benzocyclohepten-6-ol]
159 to 161	CCc1ccc(S(=O)(=O)N[C@@H]2c3cc([N+](=O)[O-])ccc3CCC[C@H]2O)cc1 (relative stereo) [Example 20, trans-5-[N-(4-Ethylphenyl)-sulfonylamino]-3-nitro-6,7,8,9-tetrahydro-5H-benzocyclohepten-6-ol]

More lines, now with the values behind:

SMILES	melting point [°C]
O=S(=O)(N[C@@H]1c2ccccc2CCC[C@H]1O)c1ccccc1 (relative stereo) [Example 16, trans-5-(N-Phenylsulfonylamino)-6,7,8,9-tetrahydro-5H-benzocyclohepten-6-ol]	128 to 128.2
Cc1ccc(S(=O)(=O)N[C@@H]2c3ccccc3CCC[C@H]2O)cc1 (relative stereo) [Example 17, trans-5-[N-(4-Methylphenyl)-sulfonylamino]-6,7,8,9-tetrahydro-5H-benzocyclo hepten-6-ol]	124.5 to 125.1
COc1ccc(S(=O)(=O)N[C@@H]2c3ccccc3CCC[C@H]2O)cc1 (relative stereo) [Example 18, trans-5-[N-(4-Methoxyphenyl)-sulfonylamino]-6,7,8,9-tetrahydro-5H-benzocyclohepten-6-ol]	140 to 141
CN(C1CCCOc2ccccc21)S(C)(=O)=O (stereo not drawn) [Example 8, 5-(N-Methyl-N-methylsulfonylamino)-2,3,4,5-tetrahydro-1-benzoxepine]	143 to 145
